The target in this experiment is T1, MER (Homo sapiens, UniProt Q12866).
T1 construct: recombinant phosphorylated forms of the kinase domains for AXL, MER and TYRO3; purchased Carna Biosciences 08-108
T1 sequence (Q12866 587-858 limits assumed): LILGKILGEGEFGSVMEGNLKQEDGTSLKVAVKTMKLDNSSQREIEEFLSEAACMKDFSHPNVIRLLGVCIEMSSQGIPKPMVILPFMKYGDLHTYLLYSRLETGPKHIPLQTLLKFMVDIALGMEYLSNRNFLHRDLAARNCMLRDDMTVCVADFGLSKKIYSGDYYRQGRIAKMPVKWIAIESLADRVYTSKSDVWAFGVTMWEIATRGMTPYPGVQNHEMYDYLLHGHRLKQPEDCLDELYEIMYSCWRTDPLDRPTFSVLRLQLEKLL
The experiment is described as follows: TR-FRET kinase assay, cMER. It counts as biochemical. The protocol:
The biochemical potency of Compound 1 to inhibit the enzymatic activity of TAM family members was investigated by TR-FRET assays using recombinant phosphorylated forms of the kinase domains for AXL, MER and TYRO3.
Phospho-AXL (pAXL), cMER and Tyro3 kinase activities were measured by time-resolved fluorescence energy transfer (TR-FRET) assays. Autophosphorylation of AXL was carried out before the kinase assay by incubating the recombinant AXL protein (ThermoFisher Scientific; #PV4275) in buffer containing 50 mM Tris, pH 7.5, 0.2 mg/mL AXL, 5 mM ATP, 20 mM MgCl2 and 2 mM dithiothreitol (DTT) at room temperature for 1 hour. […] The plate was incubated for 30 minutes at room temperature, and homogenous time resolved fluorescence (HTRF) signal was measured on a PheraStar FS plate reader (BMG Labtech, Ortenberg, Germany). Percent inhibition was calculated for each concentration, and half maximal inhibitory concentration (IC50) value was generated from curve fitting with GraphPad Prism software (San Diego, Calif.).
Compound reversibility was determined by measuring the recovery of cMER enzymatic activity after a rapid and large dilution of the cMER-inhibitor complex. cMER, ATP, and biotin-labeled peptide substrate were diluted in kinase assay buffer containing 50 mM HEPES, pH 7.5, 10 mM MgCl2, 1 mM EGTA, 0.01% NP-40, and 2 mM DTT. […]
On the technique in general: In TR-FRET formats the signal depends on donor and acceptor labels being close together.

From patent US12214036B2, “Combination therapy comprising AXL/MER and PD-1/PD-L1 inhibitors” (Incyte Corporation, priority 2020, dated 2025) come the findings set out here.

The term IC50 denotes the concentration that gives 50% inhibition. `CC(C)C(=O)N1CCC(c2cc(-c3ccc(NC(=O)c4cn(C(C)C)c(=O)n(-c5ccccn5)c4=O)cc3)c3c(N)ncnn23)CC1` [Compound 1, N-(4-(4-Amino-7-(1-isobutyrylpiperidin-4-yl)pyrrolo[1,2-f][1,2,4]triazin-5-yl)phenyl)-1-isopropyl-2,4-dioxo-3-(pyridin-2-yl)-1,2,3,4-tetrahydropyrimidine-5-carboxamide]: where the note is “MER kinase assay, IC50 at 25, 100, 300, 1000 μM ATP (FIG. 1)”, the “mode of inhibition with respect to ATP concentration” value is given as “ATP-competitive mode of inhibition”. Further, the 50% inhibitory concentration (IC50) (average from multiple lots, n=25, read-out: IC50 against MER) was found to be 3.17 ± 1.97 nM.
